Measurements from patent US20260137703A1, “2-AMINO-PYRIDO[2,3-D]PYRIMIDIN-7(8H)-ONE AND 7-AMINO-1-PYRIMIDO[4,5-D]PYRIMIDIN-2(1 H)-ONE DERIVATIVES AS EGFR INHIBITORS FOR THE TREATMENT OF CANCER” (Cancer Research Technology Limited, priority 2022, published 2026).
Read-outs that look alike come from different tables or passages of the source. One block for each compound: values may come before it.

Legend:
[1] = THF
[2] = target: T1, Phospho-EGFR (Tyr1068) in H1975 cells (Homo sapiens, UniProt P00533, L858R/T790M); experiment: HTRF pEGFR/total EGFR in H1975 cells; type: cell-based; conditions: ratio pEGFR/total EGFR, compound 3 hours
T1 construct: host or cells: H1975
Procedure, shortened: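 H1975 cells (EGFR L858R/T790M) treated 3 h with compound in 0.1% DMSO, in duplicate, 24 h after plating. Lysates assayed by HTRF for pEGFR (Tyr1068) and total EGFR at 665/620 nm; values are pEGFR/total EGFR ratio as percent of 0 μM control.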

[3] = target: T2, Phospho-EGFR (Tyr1068) in H1975 C797S cells (CRISPR-edited EGFR C797S) (Homo sapiens, UniProt P00533, C797S/L858R/T790M); experiment: HTRF pEGFR/total EGFR in H1975 C797S cells; type: cell-based; conditions: ratio pEGFR/total EGFR, compound 3 hours
T2 construct: host or cells: H1975 C797S (CRISPR-edited)
Procedure, shortened: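 Adhered H1975 C797S cells got compound for 3 h in duplicate at 0.1% DMSO final, then were lysed 30 min at room temperature. HTRF kits quantified phospho-EGFR (Tyr1068) and total EGFR (665/620 nm); results are pEGFR/total EGFR ratio as percent of 0 μM control.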

[4] = target: T3, Phospho-EGFR (Tyr1068) in A431 cells (Homo sapiens, UniProt P00533); experiment: HTRF pEGFR/total EGFR in A431 cells with EGF stimulation; type: cell-based; conditions: ratio pEGFR/total EGFR, compound 2.5 hours then 100 ng/ml EGF 30 mins
T3 construct: endogenous in cells; host or cells: A431
Procedure, shortened: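 A431 cells were plated at 20,000 per well, allowed 24 h to adhere, then given compound for 2.5 h (0.1% DMSO final). They were then stimulated with 100 ng/ml EGF for 30 min and lysed. HTRF measured Tyr1068-phospho and total EGFR at 665/620 nm, with pEGFR/total EGFR expressed as % of the 0 μM control.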

[5] = target: CtermHisTag-mEGFR Wild type (Homo sapiens, UniProt P00533); experiment: biochemical
Sequence of CtermHisTag-mEGFR Wild type (P00533 whole entry): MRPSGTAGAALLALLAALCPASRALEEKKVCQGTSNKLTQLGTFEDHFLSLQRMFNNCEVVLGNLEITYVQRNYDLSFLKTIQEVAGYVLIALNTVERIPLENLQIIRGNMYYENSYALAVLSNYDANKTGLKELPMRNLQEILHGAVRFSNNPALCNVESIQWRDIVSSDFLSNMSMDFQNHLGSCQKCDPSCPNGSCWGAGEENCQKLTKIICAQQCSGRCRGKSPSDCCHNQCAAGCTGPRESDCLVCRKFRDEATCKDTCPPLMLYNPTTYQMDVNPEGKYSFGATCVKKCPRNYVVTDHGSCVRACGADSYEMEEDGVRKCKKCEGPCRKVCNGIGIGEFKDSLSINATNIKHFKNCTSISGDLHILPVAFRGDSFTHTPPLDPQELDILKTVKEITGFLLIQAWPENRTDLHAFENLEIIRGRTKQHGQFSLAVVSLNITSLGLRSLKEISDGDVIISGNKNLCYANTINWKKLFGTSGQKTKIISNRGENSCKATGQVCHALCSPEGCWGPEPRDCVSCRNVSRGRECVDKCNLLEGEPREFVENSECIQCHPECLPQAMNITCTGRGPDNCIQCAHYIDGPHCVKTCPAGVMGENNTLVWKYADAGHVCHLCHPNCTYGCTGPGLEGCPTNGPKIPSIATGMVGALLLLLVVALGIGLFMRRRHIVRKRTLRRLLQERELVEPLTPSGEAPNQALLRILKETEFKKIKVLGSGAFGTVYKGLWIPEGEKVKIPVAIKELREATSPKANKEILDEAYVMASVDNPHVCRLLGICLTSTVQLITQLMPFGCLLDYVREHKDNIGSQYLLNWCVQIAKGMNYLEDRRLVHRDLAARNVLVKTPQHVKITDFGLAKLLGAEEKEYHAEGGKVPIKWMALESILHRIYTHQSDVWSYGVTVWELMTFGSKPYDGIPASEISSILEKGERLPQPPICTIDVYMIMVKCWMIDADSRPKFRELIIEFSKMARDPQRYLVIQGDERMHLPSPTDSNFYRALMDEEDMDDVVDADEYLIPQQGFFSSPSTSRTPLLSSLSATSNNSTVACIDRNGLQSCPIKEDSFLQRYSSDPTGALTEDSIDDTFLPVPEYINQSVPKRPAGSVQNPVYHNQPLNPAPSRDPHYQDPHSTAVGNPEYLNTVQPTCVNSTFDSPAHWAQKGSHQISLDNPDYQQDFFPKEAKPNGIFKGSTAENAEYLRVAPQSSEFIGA

T3 sequence (P00533 25-1210): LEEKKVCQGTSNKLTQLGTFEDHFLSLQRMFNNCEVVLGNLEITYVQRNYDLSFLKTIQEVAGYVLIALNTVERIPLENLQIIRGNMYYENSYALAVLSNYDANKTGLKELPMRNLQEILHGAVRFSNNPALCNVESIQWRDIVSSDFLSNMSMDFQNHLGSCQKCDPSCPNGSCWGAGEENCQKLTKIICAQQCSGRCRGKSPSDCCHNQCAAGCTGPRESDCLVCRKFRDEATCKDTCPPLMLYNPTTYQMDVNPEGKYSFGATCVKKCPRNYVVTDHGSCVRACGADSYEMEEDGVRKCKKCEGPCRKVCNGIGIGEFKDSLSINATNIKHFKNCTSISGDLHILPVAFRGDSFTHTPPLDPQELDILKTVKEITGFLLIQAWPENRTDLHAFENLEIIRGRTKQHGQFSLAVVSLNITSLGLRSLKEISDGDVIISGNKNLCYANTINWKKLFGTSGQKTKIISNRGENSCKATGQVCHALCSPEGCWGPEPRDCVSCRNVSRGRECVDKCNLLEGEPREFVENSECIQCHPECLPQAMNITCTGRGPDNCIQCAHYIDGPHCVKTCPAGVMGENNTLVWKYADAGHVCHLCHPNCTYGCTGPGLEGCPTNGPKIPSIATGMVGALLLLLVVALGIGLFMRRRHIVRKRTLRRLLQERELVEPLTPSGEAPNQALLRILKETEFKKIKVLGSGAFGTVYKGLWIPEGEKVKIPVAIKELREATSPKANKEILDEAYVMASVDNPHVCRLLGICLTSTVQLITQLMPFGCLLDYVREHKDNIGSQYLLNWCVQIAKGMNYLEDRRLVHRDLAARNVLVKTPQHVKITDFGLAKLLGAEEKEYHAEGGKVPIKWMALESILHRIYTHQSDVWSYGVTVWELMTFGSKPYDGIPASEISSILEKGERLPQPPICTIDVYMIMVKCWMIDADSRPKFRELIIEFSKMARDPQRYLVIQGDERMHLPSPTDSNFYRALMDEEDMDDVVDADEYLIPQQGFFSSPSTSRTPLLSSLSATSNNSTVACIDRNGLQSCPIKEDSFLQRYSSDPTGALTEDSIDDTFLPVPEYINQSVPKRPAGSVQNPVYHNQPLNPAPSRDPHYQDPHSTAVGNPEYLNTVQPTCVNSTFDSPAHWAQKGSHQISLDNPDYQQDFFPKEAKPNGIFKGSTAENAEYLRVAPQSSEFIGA
T2 sequence (P00533 25-1210 T790M/C797S/L858R): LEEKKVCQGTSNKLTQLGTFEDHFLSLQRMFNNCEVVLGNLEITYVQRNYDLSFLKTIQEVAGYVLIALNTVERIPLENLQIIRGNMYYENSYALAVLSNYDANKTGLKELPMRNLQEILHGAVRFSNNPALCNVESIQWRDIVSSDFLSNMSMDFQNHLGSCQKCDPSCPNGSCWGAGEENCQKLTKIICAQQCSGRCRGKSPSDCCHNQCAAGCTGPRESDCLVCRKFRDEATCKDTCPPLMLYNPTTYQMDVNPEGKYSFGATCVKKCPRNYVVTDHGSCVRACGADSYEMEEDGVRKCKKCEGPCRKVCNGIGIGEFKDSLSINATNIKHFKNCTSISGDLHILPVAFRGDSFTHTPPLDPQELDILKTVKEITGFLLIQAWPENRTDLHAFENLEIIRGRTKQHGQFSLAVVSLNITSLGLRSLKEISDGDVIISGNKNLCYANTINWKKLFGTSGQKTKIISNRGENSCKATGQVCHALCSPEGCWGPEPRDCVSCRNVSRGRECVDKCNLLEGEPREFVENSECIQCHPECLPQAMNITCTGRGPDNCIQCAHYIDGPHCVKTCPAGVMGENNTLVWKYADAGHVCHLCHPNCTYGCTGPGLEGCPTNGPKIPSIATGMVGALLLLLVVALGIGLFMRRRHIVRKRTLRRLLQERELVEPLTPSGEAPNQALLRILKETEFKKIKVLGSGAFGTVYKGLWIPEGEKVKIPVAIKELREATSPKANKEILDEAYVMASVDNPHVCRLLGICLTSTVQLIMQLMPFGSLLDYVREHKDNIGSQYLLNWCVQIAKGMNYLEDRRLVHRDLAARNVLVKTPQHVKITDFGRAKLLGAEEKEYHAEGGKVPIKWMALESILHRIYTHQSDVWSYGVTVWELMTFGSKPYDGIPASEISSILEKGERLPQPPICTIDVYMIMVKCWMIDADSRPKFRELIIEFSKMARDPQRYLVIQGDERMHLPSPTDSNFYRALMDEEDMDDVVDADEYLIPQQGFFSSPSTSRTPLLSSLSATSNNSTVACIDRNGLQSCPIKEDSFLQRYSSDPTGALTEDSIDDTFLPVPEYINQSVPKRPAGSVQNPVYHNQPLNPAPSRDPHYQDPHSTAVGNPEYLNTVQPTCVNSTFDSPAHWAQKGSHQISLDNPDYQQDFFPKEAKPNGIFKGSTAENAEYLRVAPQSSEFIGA
T1 sequence (P00533 25-1210 T790M/L858R): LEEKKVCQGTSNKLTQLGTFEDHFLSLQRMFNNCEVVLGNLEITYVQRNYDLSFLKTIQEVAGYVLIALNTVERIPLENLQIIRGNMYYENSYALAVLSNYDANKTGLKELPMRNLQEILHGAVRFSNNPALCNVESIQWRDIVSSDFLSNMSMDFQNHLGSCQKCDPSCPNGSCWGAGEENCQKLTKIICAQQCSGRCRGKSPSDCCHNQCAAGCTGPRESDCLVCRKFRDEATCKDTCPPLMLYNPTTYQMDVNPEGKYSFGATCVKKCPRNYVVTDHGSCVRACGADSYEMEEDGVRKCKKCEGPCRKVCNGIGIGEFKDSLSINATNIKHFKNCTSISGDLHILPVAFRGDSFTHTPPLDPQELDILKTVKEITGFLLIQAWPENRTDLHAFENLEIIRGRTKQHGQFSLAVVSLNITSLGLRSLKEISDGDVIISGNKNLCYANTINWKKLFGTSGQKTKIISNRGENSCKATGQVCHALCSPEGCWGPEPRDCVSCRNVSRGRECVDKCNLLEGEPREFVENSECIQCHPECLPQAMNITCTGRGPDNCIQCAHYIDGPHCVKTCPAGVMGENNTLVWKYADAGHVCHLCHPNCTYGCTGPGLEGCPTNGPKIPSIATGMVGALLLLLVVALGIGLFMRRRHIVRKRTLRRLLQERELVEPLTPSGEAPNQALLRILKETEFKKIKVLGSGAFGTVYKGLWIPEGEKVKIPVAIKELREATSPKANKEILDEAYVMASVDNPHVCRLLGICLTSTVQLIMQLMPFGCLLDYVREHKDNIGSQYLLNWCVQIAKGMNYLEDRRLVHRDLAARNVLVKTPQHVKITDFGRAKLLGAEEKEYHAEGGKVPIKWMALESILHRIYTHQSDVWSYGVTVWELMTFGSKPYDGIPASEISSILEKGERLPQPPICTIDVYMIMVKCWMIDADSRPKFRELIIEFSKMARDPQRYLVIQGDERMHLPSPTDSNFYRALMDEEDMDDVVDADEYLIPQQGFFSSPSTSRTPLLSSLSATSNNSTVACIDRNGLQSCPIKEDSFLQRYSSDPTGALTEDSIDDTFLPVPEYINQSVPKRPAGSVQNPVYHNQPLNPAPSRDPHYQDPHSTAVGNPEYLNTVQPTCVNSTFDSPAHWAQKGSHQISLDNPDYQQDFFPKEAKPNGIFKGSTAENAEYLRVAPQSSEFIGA

Compound: CC(C)N1CCN(c2ccc3cc2NC(=O)CCCn2c(=O)cc(C#C[Si](C(C)C)(C(C)C)C(C)C)c4cnc(nc42)N3)CC1
ring closure, isolated yield ([1]; from CC(C)N1CCN(c2ccc(Nc3ncc4c(C#C[Si](C(C)C)(C(C)C)C(C)C)cc(=O)[nH]c4n3)cc2NC(=O)CCCO)CC1, other bond, 13-membered ring, PPh3/DEAD, 72.2 mM): 44%

Compound: CC(C)[Si](C#Cc1cc(=O)n2c3nc(ncc13)Nc1ccc(N3CCCN(C)CC3)c(c1)NC(=O)CCC2)(C(C)C)C(C)C
ring closure, isolated yield ([1]; from CC(C)[Si](C#Cc1cc(=O)[nH]c2nc(Nc3ccc(N4CCCN(C)CC4)c(NC(=O)CCCO)c3)ncc12)(C(C)C)C(C)C, other bond, 13-membered ring, PPh3/DEAD, 31.7 mM): 41%

Compound: CC(C)[Si](C#Cc1cc(=O)n2c3nc(ncc13)Nc1ccc(N3CCN(C)CC3)c(c1)CC(=O)NCC2)(C(C)C)C(C)C
ring closure, isolated yield ([1]; from CC(C)[Si](C#Cc1cc(=O)[nH]c2nc(Nc3ccc(N4CCN(C)CC4)c(CC(=O)NCCO)c3)ncc12)(C(C)C)C(C)C, other bond, 13-membered ring, PPh3/DIAD, 24.0 mM): 43%

Compound: CC(C)[Si](C#Cc1cc(=O)n2c3nc(ncc13)Nc1ccc(N3CCN(C)CC3)c(c1)CN(C)CCC2)(C(C)C)C(C)C
ring closure, isolated yield ([1]; from CC(C)[Si](C#Cc1cc(=O)[nH]c2nc(Nc3ccc(N4CCN(C)CC4)c(CN(C)CCCO)c3)ncc12)(C(C)C)C(C)C, other bond, 13-membered ring, PPh3/DIAD, 24.4 mM): 50%

Compound: CC(C)[Si](C#Cc1cc(=O)n2c3nc(ncc13)Nc1ccc(N3CCN(C)CC3)c(c1)CNCCC2)(C(C)C)C(C)C
ring closure, isolated yield ([1]; from CC(C)[Si](C#Cc1cc(=O)[nH]c2nc(Nc3ccc(N4CCN(C)CC4)c(CNCCCO)c3)ncc12)(C(C)C)C(C)C, other bond, 13-membered ring, PPh3/DIAD, 20.5 mM): 53%

Compound: CC(C)[Si](C#Cc1cc(=O)n2c3nc(ncc13)Nc1ccc(N3CCN(C)CC3)c(c1)COCCC2)(C(C)C)C(C)C
ring closure, isolated yield ([1]; from CC(C)[Si](C#Cc1cc(=O)[nH]c2nc(Nc3ccc(N4CCN(C)CC4)c(COCCCO)c3)ncc12)(C(C)C)C(C)C, other bond, 13-membered ring, PPh3/DIAD, 24.0 mM): 29%

Compound: CC(C)[Si](C#Cc1cc(=O)n2c3nc(ncc13)Nc1ccc(N3CCN(C)CC3)c(c1)COCCCC2)(C(C)C)C(C)C
ring closure, isolated yield ([1]; from CC(C)[Si](C#Cc1cc(=O)[nH]c2nc(Nc3ccc(N4CCN(C)CC4)c(COCCCCO)c3)ncc12)(C(C)C)C(C)C, other bond, 14-membered ring, PPh3/DEAD, 129.0 mM): 28%

Compound: CC(C)[Si](C#Cc1cc(=O)n2c3nc(ncc13)Nc1ccc(N3CCN(C)CC3)c(c1)NCCCC2)(C(C)C)C(C)C
ring closure, isolated yield ([1]; from CC(C)[Si](C#Cc1cc(=O)[nH]c2nc(Nc3ccc(N4CCN(C)CC4)c(NCCCCO)c3)ncc12)(C(C)C)C(C)C, other bond, 13-membered ring, PPh3/DIAD, 24.0 mM): 38%

Compound: CC(C)[Si](C#Cc1cc(=O)n2c3nc(ncc13)Nc1ccc(N3CCN(C)CC3)c(c1)OCC=CC2)(C(C)C)C(C)C
ring closure, isolated yield ([1]; from CC(C)[Si](C#Cc1cc(=O)[nH]c2nc(Nc3ccc(N4CCN(C)CC4)c(OC/C=C\CO)c3)ncc12)(C(C)C)C(C)C, other bond, 13-membered ring, PPh3/DIAD, 24.0 mM): 55%

Compound: CC(C)[Si](C#Cc1cc(=O)n2c3nc(ncc13)Nc1ccc(N3CCN(C)CC3)c(c1)OCCCC2)(C(C)C)C(C)C
ring closure, isolated yield ([1]; from CC(C)[Si](C#Cc1cc(=O)[nH]c2nc(Nc3ccc(N4CCN(C)CC4)c(OCCCCO)c3)ncc12)(C(C)C)C(C)C, other bond, 13-membered ring, PPh3/DIAD, 25.0 mM): 42%

Compound: CC(C)[Si](C#Cc1cc(=O)n2c3nc(ncc13)Nc1ccc(N3CCN(C)CC3)c(c1)OCCCCC2)(C(C)C)C(C)C
ring closure, isolated yield ([1]; from CC(C)[Si](C#Cc1cc(=O)[nH]c2nc(Nc3ccc(N4CCN(C)CC4)c(OCCCCCO)c3)ncc12)(C(C)C)C(C)C, other bond, 14-membered ring, PPh3/DIAD, 24.3 mM): 22%

Compound: CC(C)[Si](C#Cc1cc(=O)n2c3nc(ncc13)Nc1ccc(N3CCN(C)CC3)c(c1)OCCC[C@H]2C)(C(C)C)C(C)C
ring closure, isolated yield ([1]; from CC(C)[Si](C#Cc1cc(=O)[nH]c2nc(Nc3ccc(N4CCN(C)CC4)c(OCCC[C@H](C)O)c3)ncc12)(C(C)C)C(C)C, other bond, 13-membered ring, PPh3/DIAD, 24.2 mM): 18%

Compound: CC(C)[Si](C#Cc1cc(=O)n2c3nc(ncc13)Nc1ccc(N3CCN(C)CC3)c(c1)S(=O)(=O)NCCC2)(C(C)C)C(C)C
ring closure, isolated yield ([1]; from CC(C)[Si](C#Cc1cc(=O)[nH]c2nc(Nc3ccc(N4CCN(C)CC4)c(S(=O)(=O)NCCCO)c3)ncc12)(C(C)C)C(C)C, other bond, 13-membered ring, PPh3/DIAD, 24.3 mM): 15%

Compound: CC(C)[Si](C#Cc1cc(=O)n2c3nc(ncc13)Nc1cccc(c1)COCC=CC2)(C(C)C)C(C)C
ring closure, isolated yield ([1]; from CC(C)[Si](C#Cc1cc(=O)[nH]c2nc(Nc3cccc(COC/C=C\CO)c3)ncc12)(C(C)C)C(C)C, other bond, 14-membered ring, PPh3/DIAD, 24.0 mM): 56%

Compound: CC(C)[Si](C#Cc1cc(=O)n2c3nc(ncc13)Nc1cccc(c1)OCC=CC2)(C(C)C)C(C)C
ring closure, isolated yield ([1]; from CC(C)[Si](C#Cc1cc(=O)n(C/C=C\CO)c2nc(Nc3cccc(O)c3)ncc12)(C(C)C)C(C)C, ether bond, 13-membered ring, PPh3/DIAD, 25.0 mM): 33%
ring closure, isolated yield ([1]; from CC(C)[Si](C#Cc1cc(=O)n(C/C=C\CO)c2nc(Nc3cccc(O)c3)ncc12)(C(C)C)C(C)C, ether bond, 13-membered ring, PPh3/DIAD, 278.0 mM): 52%

Compound: CC(C)[Si](C#Cc1cc(=O)n2c3nc(ncc13)Nc1cccc(c1)OCCC2)(C(C)C)C(C)C
ring closure, isolated yield ([1]; from CC(C)[Si](C#Cc1cc(=O)n(CCCO)c2nc(Nc3cccc(O)c3)ncc12)(C(C)C)C(C)C, ether bond, 12-membered ring, PPh3/DIAD, 52.0 mM): 31%

Compound: CC(C)[Si](C#Cc1cc(=O)n2c3nc(ncc13)Nc1cccc(c1)OC[C@H]1CC[C@H](C1)C2)(C(C)C)C(C)C
ring closure, isolated yield ([1]; from CC(C)[Si](C#Cc1cc(=O)[nH]c2nc(Nc3cccc(OC[C@H]4CC[C@@H](CO)C4)c3)ncc12)(C(C)C)C(C)C, other bond, 14-membered ring, PPh3/DIAD, 183.0 mM): 26%

Compound: CC1CCCCOc2cc(ccc2N2CCN(C)CC2)Nc2ncc3c(C#C[Si](C(C)C)(C(C)C)C(C)C)cc(=O)n1c3n2 (centres unmarked)
ring closure, isolated yield ([1]; from CC(O)CCCCOc1cc(Nc2ncc3c(C#C[Si](C(C)C)(C(C)C)C(C)C)cc(=O)[nH]c3n2)ccc1N1CCN(C)CC1, other bond, 14-membered ring, PPh3/DIAD, 24.0 mM): 19%

Compound: COCCN1CCN(c2ccc3cc2NC(=O)CCCn2c(=O)cc(C#C[Si](C(C)C)(C(C)C)C(C)C)c4cnc(nc42)N3)CC1
ring closure, isolated yield ([1]; from COCCN1CCN(c2ccc(Nc3ncc4c(C#C[Si](C(C)C)(C(C)C)C(C)C)cc(=O)[nH]c4n3)cc2NC(=O)CCCO)CC1, other bond, 13-membered ring, PPh3/DEAD, 25.7 mM): 42%

Compound: Cc1c(C#C[Si](C(C)C)(C(C)C)C(C)C)c2cnc3nc2n(c1=O)CCCCCOc1cc(ccc1N1CCN(C)CC1)N3
ring closure, isolated yield ([1]; from Cc1c(C#C[Si](C(C)C)(C(C)C)C(C)C)c2cnc(Nc3ccc(N4CCN(C)CC4)c(OCCCCCO)c3)nc2[nH]c1=O, other bond, 14-membered ring, PPh3/DEAD, 94.8 mM): 51%

IC50 [2]: < 500 nM
IC50 [3]: 500 to 1000 nM
IC50 [4]: > 3000 nM
IC50 [5]: < 1000 nM
Compound: C#Cc1cc(=O)n2c3nc(ncc13)Nc1ccc(N3CCN(C)CC3)c(c1)CNC(=O)CCC2 [Example 237, 1^5-Ethynyl-3^4-(4-methylpiperazin-1-yl)-1^7,1^8-dihydro-2,5-diaza-1(2,8)-pyrido[2,3-d]pyrimidina-3(1,3)-benzenacyclononaphane-1^7,6-dione]

IC50 [2]: < 500 nM
IC50 [3]: < 500 nM
IC50 [4]: > 3000 nM
IC50 [5]: < 1000 nM
Compound: C#Cc1cc(=O)n2c3nc(ncc13)Nc1ccc(N3CCCN(C)CC3)c(c1)NC(=O)CCC2 [Example 238, 1^5-Ethynyl-3^4-(4-methyl-1,4-diazepan-1-yl)-1^7,1^8-dihydro-2,4-diaza-1(2,8)-pyrido[2,3-d]pyrimidina-3(1,3)-benzenacyclooctaphane-1^7,5-dione]

IC50 [2]: < 500 nM
IC50 [3]: < 500 nM
IC50 [4]: > 3000 nM
IC50 [5]: < 1000 nM
Compound: C#Cc1cc(=O)n2c3nc(ncc13)Nc1ccc(N3CCN(C)CC3)c(c1)OCCC[C@H]2C [Example 239, (R)-1^5-ethynyl-8-methyl-3^4-(4-methylpiperazin-1-yl)-1^7,1^8-dihydro-4-oxa-2-aza-1(2,8)-pyrido[2,3-d]pyrimidina-3(1,3)-benzenacyclooctaphan-1^7-one]

IC50 [2]: < 500 nM
IC50 [3]: < 500 nM
IC50 [4]: 1000 to 3000 nM
IC50 [5]: < 1000 nM
Compound: C#Cc1cc(=O)n2c3nc(ncc13)Nc1ccc(N3CCN(C)CC3)c(c1)CCOCC2 [Example 240, 1^5-Ethynyl-3^4-(4-methylpiperazin-1-yl)-1^7,1^8-dihydro-6-oxa-2-aza-1(2,8)-pyrido[2,3-d]pyrimidina-3(1,3)-benzenacyclooctaphan-1^7-one]

IC50 [2]: < 500 nM
IC50 [3]: < 500 nM
IC50 [4]: 500 to 1000 nM
IC50 [5]: < 1000 nM
Compound: C#Cc1cc(=O)n2c3nc(ncc13)Nc1ccc(N3CCN(CCOC)CC3)c(c1)OCCCC2 [Example 241, 1^5-Ethynyl-3^4-(4-(2-methoxyethyl)piperazin-1-yl)-1^7,1^8-dihydro-4-oxa-2-aza-1(2,8)-pyrido[2,3-d]pyrimidina-3(1,3)-benzenacyclooctaphan-1^7-one]
